Values of other authors in patent US11701318B2, “Process of dyeing keratinous material comprising the use of an organosilicon compound, an effect pigment, and a film-forming polymer I” (Henkel AG & Co. KGaA, priority 2019, dated 2023).

Conditions: 25° C.

Compound | solubility in water (in words) | solubility in water
O=C([O-])C1=NN(c2ccc(S(=O)(=O)[O-])cc2)C(=O)C1N=Nc1ccc(S(=O)(=O)[O-])cc1.[Na+].[Na+].[Na+] (stereo not drawn) [Acid Yellow 23, trisodium salt of 4,5-dihydro-5-oxo-1-(4-sulfophenyl)-4-((4-sulfophenyl)azo)-1H-pyrazole-3-carboxylic acid] | highly soluble in water | –
mixture of the sodium salts of mono- and disulfonic acids of 2-(2-quinolyl)-1H-indene-1,3(2H)-dione [Acid Yellow 3] | – | 20 g/L
Nc1cc(S(=O)(=O)[O-])cc2cc(S(=O)(=O)[O-])c(N=Nc3ccccc3)c(O)c12.[Na+].[Na+] [Acid Red 33, disodium salt of 5-amino-4-hydroxy-3-(phenylazo)-naphthalene-2,7-disulphonate] | – | 2.5 g/L
O=S(=O)([O-])c1ccc(N=Nc2c(O)ccc3ccccc23)cc1.[Na+] [Acid Orange 7, sodium salt of 4-[(2-hydroxy-1-naphthyl)azo]benzene sulphonate] | – | more than 7 g/L
CCN(Cc1cccc(S(=O)(=O)[O-])c1)c1ccc(C(=C2C=CC(=[N+](CC)Cc3cccc(S(=O)(=O)[O-])c3)C=C2)c2ccccc2S(=O)(=O)[O-])cc1.[Na+].[Na+] [Acid Blue 9] | – | more than 20 % by weight
O=C([O-])c1c(Cl)c(Cl)c(Cl)c(Cl)c1-c1c2c(Br)cc(=O)c(Br)c-2oc2c(Br)c(O)cc(Br)c12.O=C([O-])c1c(Cl)c(Cl)c(Cl)c(Cl)c1-c1c2c(Br)cc(=O)c(Br)c-2oc2c(Br)c(O)cc(Br)c12.[Na+].[Na+] [Acid Red 92, disodium salt of 3,4,5,6-tetrachloro-2-(1,4,5,8-tetrabromo-6-hydroxy-3-oxoxanthen-9-yl)benzoic acid] | – | greater than 10 g/L
